Experimental data: patent US11285136B2, “Nanoparticles for controlled release of Sorafenib and Sorafenib derivatives” (DISTRETTO TECNOLOGICO SICILIA MICRO NANO SISTEMI S.C.A.R.L., priority 2017, dated 2022)
Entries after “also recorded” stand apart in the source; their conditions may differ.

Key:
[1] = tested on: Hep3B hepatocellular carcinoma; experiment: Hep3B xenograft in nude mice, therapeutic efficacy; assay type: in vivo; conditions: 10 mg/kg daily (6 days/week), 17 days, FIG. 5A
Description: (§1) Male nude mice (fox1 nu/nu) of 4 weeks of life were purchased at Envigo (Udine, Italy) and left to acclimatize for 1 week. Hep3B cells (10×10^6 in 0.2 ml PBS), undergoing logarithmic growth, were inoculated in the right flank of the animals. When the tumors were palpable (about 300 mm^3), the mice were randomly divided into four groups of five animals each, with the various tumor volumes equally distributed between the four groups. Each group was treated for 17 days as indicated below.
Group 1: daily treatment (6 days/week) by intraperitoneal (IP) injection with 10 mg/kg of Sorafenib tosylate resuspended in DMSO and further diluted in a 25% solution of ethanol (DMSO-EtOH).
Group 2: carrier only (DMSO-EtOH).
Group 4: daily treatment (6 days/week) with 10 mg/kg of empty PBB nanoparticles resuspended in RPMI.
To quantify the Ki-67 cell proliferation marker expression, the ImmunoRatio® software (http://jvsmicroscope.uta.fi/immunoratio/) was used which, using a color deconvolution algorithm, calculates the percentage of positively marked area (area stained with diaminobenzidine) towards the total nuclear area. The hematoxylin stains were also acquired to analyze the neo-vascularization of the tumor, using the Leica DMR microscope equipped with a Leica DFC 320 digital camera.

[2] = Biodistribution of Sorafenib in tissues of treated mice; conditions: compared with Sorafenib PBB, p<0.01, FIG. 6
Description: The lyophilized nanoparticle samples were resuspended and sonicated as reported in cell viability assays. Tumor volumes and body weight were recorded twice a week as previously described (Cusimano et al., Cytotoxic activity of the novel small molecule AKT inhibitor SC66 in hepatocellular carcinoma cells. Oncotarget 2015, 6, 1707-1722). The mice were sacrificed by cervical dislocation when the tumor mass exceeded 10% of the body weight of the animals, or when the tumor mass appeared ulcerated or other morbid conditions were found, in accordance with the institutional guidelines and in accordance with the national law (Legislative Decree No. 26 4-3-2014) and international laws and policies (ECC Council Directive 86/609, OJ L358.1, Dec. 12, 1987). […] At the end of the trial, tumors, liver, kidneys, lungs and spleen were collected from each animal. Half of each tumor, or organ, was frozen in liquid nitrogen and stored at −80° C. for biodistribution analyzes, while the other half was fixated in formalin and used for immunohistochemistry analysis.
Sorafenib was extracted from the tissues of the treated animals following the procedure described in Craparo E F et al. Galactosylated polymeric carriers for liver targeting of Sorafenib. […]

[3] = Body weight and mobility of treated xenograft mice; assay type: in vivo, nude mice; conditions: 10 mg/kg daily (6 days/week), 17 days, FIG. 5B
Description: as §1

[4] = oral tablets, strong first-pass effect; cited from earlier work
HepG2 = experiment: Cell viability assay (CellTiter) on HepG2 cells; assay type: cell-based, human
Description: (§2) The human hepatocellular carcinoma cell lines, HepG2 and Hep3B, were obtained from the American Type Culture Collection (ATCC). Cells were kept in 5% CO2 and grown in Roswell Park Memorial Institute (RPMI) medium (SIGMA, Milan, Italy), supplemented with 10% (v/v) fetal bovine serum (FBS) (Gibco, Life Technologies, Monza MB, Italy), 2 mM L-glutamine, 100 U/ml of penicillin-streptomycin and 1 mM of sodium pyruvate (SIGMA, Milan, Italy). Cell lines were regularly checked for possible mycoplasma contamination.
(§3) The latter were resuspended in sterile conditions in sterile H2O, sonicated for 20 min in a water sonicator, and diluted with a complete RPMI volume (2×). At the end of the treatment, cell viability assays were performed using the OneSolution aqueous CellTiter kit (Promega Corporation, Madison, Wis., USA). The percentage of cell viability was calculated with reference to the absorbance measured in the control cells. The experiments were performed in triplicate and the values expressed as mean±SD of three independent experiments.

Hep3B = experiment: Cell viability assay (CellTiter) on Hep3B cells; assay type: cell-based, human; conditions: 72 hours
Description: as §2, §3

[5] = cited from earlier work
[6] = In vitro release of Sorafenib, dialysis tube method; assay type: physicochemical; conditions: SGF, SIF and PBS, 37° C.
Description: During the experiment, the temperature was maintained at 37° C. in a thermostatic stirrer and with stirring of 100 rpm. At scheduled time intervals, 1 ml aliquots were taken from the external medium and replaced with an equal volume of fresh receiving medium. The released Sorafenib was quantified by HPLC analysis. Each in vitro release experiment was repeated in triplicate.
A control experiment was also carried out to determine the dissolution of the free drug: an appropriate amount of Sorafenib was dispersed in the receiving medium, in order to have a final concentration of Sorafenib equal to that present in the nanoparticles, the dispersion was then introduced into a dialysis tube (cut-off 12000-14000 Da) which was immersed in a container containing the receiving medium. The amount of Sorafenib in the receiving medium was detected by HPLC analysis.
The amount of released Sorafenib was expressed as a percentage ratio between the released drug weight and the total amount of Sorafenib loaded into the nanoparticles. […] The cumulative release of Sorafenib in 24 hours was about 63% in SIF (panel B) and about 55% in PBS (panel C).

amount of Sorafenib detected in the lungs [2]: significantly higher
IC50 (HepG2; Homo sapiens, HepG2, 72 hours, mean ± DS): 5.5 ± 1 µM
IC50 (Hep3B; Homo sapiens, mean ± DS): 3.5 ± 0.5 µM
dissolution of free drug [6]: almost complete within two hours
Compound: CNC(=O)c1cc(Oc2ccc(NC(=O)Nc3ccc(Cl)c(C(F)(F)F)c3)cc2)ccn1 [Sorafenib, 4-[4-[[4-chloro-3-(trifluoromethyl)phenyl]carbamoylamino]phenoxy]-N-methyl-pyridine-2-carboxamide]
tumor growth [1]: reduced tumor growth compared to the carrier alone, although this difference was not significant
body weight [3]: did not show a significant loss of body weight
bioavailability [4]: low
cell viability (HepG2; HepG2, 0.6-10 μM, 72 hours, FIG. 3): strongly decreased in a dose-dependent manner
cell viability (Hep3B; 0.6-10 μM, FIG. 3): strongly decreased in a dose-dependent manner
solubility in water [5]: slightly soluble; also recorded: poorly soluble
